Results reported in ChEMBL document CHEMBL1201862, “PubChem BioAssay data set” (2004).
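These data come from cells grown in 96-well plates and exposed to compound for 48 hours at five concentrations. At the GI50, growth is halved.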 Active and inactive are the calls of the source. Rule as the data show it: active = GI50 up to about 1.1 µM and inactive = higher.

Key:
Test in all cases: inhibition of tumour cell growth, NCI panel, 48 h
SK-OV-3 = test system: SK-OV-3
SF-268 = test system: SF-268
U-251 = test system: U-251
UO-31 = test system: UO-31
MDA-MB-435 = test system: MDA-MB-435
SK-MEL-2 = test system: SK-MEL-2
MOLT-4 = test system: MOLT-4
IGROV-1 = test system: IGROV-1
HCC 2998 = test system: HCC 2998
SK-MEL-5 = test system: SK-MEL-5
OVCAR-8 = test system: OVCAR-8
UACC-257 = test system: UACC-257
A498 = test system: A498
RPMI-8226 = test system: RPMI-8226
DU-145 = test system: DU-145
LOX IMVI = test system: LOX IMVI
786-0 = test system: 786-0
HCT-15 = test system: HCT-15
MDA-MB-231 = test system: MDA-MB-231
K562 = test system: K562
NCI-H460 = test system: NCI-H460
OVCAR-4 = test system: OVCAR-4
SR = test system: SR
HT-29 = test system: HT-29
CAKI-1 = test system: CAKI-1
SNB-19 = test system: SNB-19
UACC-62 = test system: UACC-62
SF-539 = test system: SF-539
OVCAR-3 = test system: OVCAR-3
HOP-62 = test system: HOP-62
MCF7 = test system: MCF7
SF-295 = test system: SF-295
COLO 205 = test system: COLO 205
NCI-H23 = test system: NCI-H23
MDA-N = test system: MDA-N
HCT-116 = test system: HCT-116
KM12 = test system: KM12
T47D = test system: T47D
SN12C = test system: SN12C
BT-549 = test system: BT-549
NCI-H226 = test system: NCI-H226
Hs-578T = test system: Hs-578T
SNB-75 = test system: SNB-75
NCI-H522 = test system: NCI-H522
HOP-92 = test system: HOP-92
RXF 393 = test system: RXF 393
SK-MEL-28 = test system: SK-MEL-28
SW-620 = test system: SW-620
OVCAR-5 = test system: OVCAR-5
ACHN = test system: ACHN
NCI/ADR-RES = test system: NCI/ADR-RES
M14 = test system: M14
A549 = test system: A549
TK-10 = test system: TK-10
PC-3 = test system: PC-3
Malme-3M = test system: Malme-3M
CCRF-CEM = test system: CCRF-CEM
EKVX = test system: EKVX

Compound: CCCCCCCCCC(=O)NCCc1c[nH]c2ccc(OC)cc12
- GI50 (SK-OV-3): 17.4 µM (inactive)
- GI50 (SF-268): 17.7 µM (inactive)
- GI50 (U-251): 17 µM (inactive)
- GI50 (UO-31): 12.7 µM (inactive)
- GI50 (MDA-MB-435): 24.5 µM (inactive)
- GI50 (SK-MEL-2): 16.1 µM (inactive)
- GI50 (MOLT-4): 64.7 µM (inactive)
- GI50 (IGROV-1): 14.9 µM (inactive)
- GI50 (HCC 2998): 19.5 µM (inactive)
- GI50 (SK-MEL-5): 18.5 µM (inactive)
- GI50 (OVCAR-8): 16.6 µM (inactive)
- GI50 (UACC-257): 20.8 µM (inactive)
- GI50 (A498): 16.3 µM (inactive)
- GI50 (RPMI-8226): 21.1 µM (inactive)
- GI50 (DU-145): 20.2 µM (inactive)
- GI50 (LOX IMVI): 13.8 µM (inactive)
- GI50 (786-0): 19.2 µM (inactive)
- GI50 (HCT-15): 19.1 µM
- GI50 (MDA-MB-231): 15.1 µM (inactive)
- GI50 (K562): 55 µM (inactive)
- GI50 (NCI-H460): 23.3 µM (inactive)
- GI50 (OVCAR-4): > 100 µM (inactive)
- GI50 (SR): 40.9 µM (inactive)
- GI50 (HT-29): 23.2 µM (inactive)
- GI50 (CAKI-1): 25.4 µM (inactive)
- GI50 (SNB-19): 16.5 µM (inactive)
- GI50 (UACC-62): 16.3 µM (inactive)
- GI50 (SF-539): 23.2 µM (inactive)
- GI50 (OVCAR-3): 15.9 µM (inactive)
- GI50 (HOP-62): 16.4 µM (inactive)
- GI50 (MCF7): 17.5 µM (inactive)
- GI50 (SF-295): 17.4 µM (inactive)
- GI50 (COLO 205): 23.8 µM (inactive)
- GI50 (NCI-H23): 17.3 µM (inactive)
- GI50 (MDA-N): 18.8 µM (inactive)
- GI50 (HCT-116): 21.4 µM (inactive)
- GI50 (KM12): 27.9 µM (inactive)
- GI50 (T47D): 19.7 µM (inactive)
- GI50 (SN12C): 17.4 µM (inactive)
- GI50 (BT-549): 18.6 µM (inactive)
- GI50 (NCI-H226): 19.9 µM (inactive)
- GI50 (Hs-578T): 20.1 µM (inactive)
- GI50 (SNB-75): 20.6 µM (inactive)
- GI50 (NCI-H522): 16 µM (inactive)
- GI50 (HOP-92): 16.2 µM (inactive)
- GI50 (RXF 393): 19 µM (inactive)
- GI50 (SK-MEL-28): 17.9 µM (inactive)
- GI50 (SW-620): 18.2 µM (inactive)
- GI50 (OVCAR-5): 23.9 µM (inactive)
- GI50 (ACHN): 16.7 µM (inactive)
- GI50 (NCI/ADR-RES): 19.2 µM (inactive)
- GI50 (M14): 17.9 µM (inactive)
- GI50 (A549): 19 µM (inactive)
- GI50 (TK-10): 18.2 µM (inactive)
- GI50 (PC-3): 15.3 µM (inactive)
- GI50 (Malme-3M): 18.2 µM (inactive)
- GI50 (CCRF-CEM): 7.26 µM (inactive)
- GI50 (EKVX): 28 µM (inactive)
